Data set [1] has as its system endosomal acidification. Briefly: Acridine orange staining of endosomal acidification in DENV-infected BHK-21 cells. The data set is classed as cell-based, hamster. As to conditions: BHK-21 cells pretreated 1 h, DENV infection 2 h. As for the experimental part:
Hoechst was used to label nuclear DNA. Scale bar: 100 μm.
Cells were washed with HBSS (Thermo Fisher Scientific) once and then stained with acridine orange agent (Sigma-Aldrich) and Hoechst 33258 (Thermo Fisher Scientific) in an incubator at 37° C. in 5% CO2. After 45 minutes, the cells were washed with HBSS once and rinsed with HBSS. Subsequently, cells were visualized with a fluorescence microscope (EVOS). Hoechst 33258 was used for nuclear staining.
The endosomal acidification step is critical for DENV uncoating to release the viral genome for further replication in the cytoplasm (Solomon et al., J Infect, 42, 2001, 104-115). Therefore, the pH-sensitive dye acridine orange (AO) was used to explore whether propofol affects the early stages of DENV infection accordingly (Kao et al., PLoS Negl Trop Dis, 12, 2018, e0006715).

The subject of data set [2] is viral dsRNA. Briefly: dsRNA immunostaining in DENV2-infected BHK-21 cells. The format is cell-based, Dengue virus serotype 2. As to conditions: BHK-21 cells pretreated 1 h, DENV2 infection 6 h. On the procedure:
DAPI was used to label nuclear DNA. […] Scale bar: 100 μm.
Cells were washed with ice-cold PBS 3 times and fixed with 4% paraformaldehyde (Sigma-Aldrich) at room temperature for 15 minutes. Then, the cells were washed 3 times with ice-cold PBS and permeabilized with permeabilization buffer (PBS containing 1% Triton X-100) at room temperature for 5 minutes. The cells were then washed 3 times with ice-cold PBS and immunoblocked with blocking buffer (PBS containing 1% BSA and 0.01% Triton X-100) at 4° C. for 30 minutes. Next, the cells were washed 3 times with ice-cold PBS and immunohybridized with mouse anti-dsRNA J2 primary antibody at 4° C. overnight. Subsequently, the cells were washed 3 times with ice-cold PBS and stained with Alexa Fluor 488-conjugated goat anti-mouse antibody (Thermo Fisher Scientific) at room temperature for 15 minutes. The cells were washed 3 times with ice-cold PBS and then visualized with fluorescence or confocal microscopy. DAPI (Sigma-Aldrich) was used for nuclear staining.
Following endocytosis, the viral genome is released into the cytoplasm and undergoes genome replication (Solomon et al., J Infect, 42, 2001, 104-115).

Data set [3] deals with BHK-21 cells. Particulars: propofol 1 to 50 μg/ml, 24 h.
Protocol: Quantitative data are presented as the mean±SD of at least three independent experiments (n=3). ***p<0.001. ns, not significant.
According to the manufacturer's instructions, cell cytotoxicity was assessed using Cytotoxicity Detection Kit assays (Roche Diagnostics, Lewes, UK).
In data set [4] the test system is TNF-α. Particulars: cecal ligation and puncture-administrated rat liver; cited from earlier work.
Data set [5] concerns DENV2. Particulars: BHK-21 cells pretreated 1 h, DENV2 MOI=1, 24 h; doses of 5, 10, 25 and 50 μg/ml.
Protocol: Baby hamster kidney (BHK)-21 fibroblasts (ATCC, CCL10) were maintained in Dulbecco's modified Eagle's medium (DMEM; Thermo Fisher Scientific) containing 10% heat-inactivated fetal bovine serum (FBS, Biological Industries) and 1% penicillin-streptomycin (Thermo Fisher Scientific) at 37° C. in 5% CO2. […] The Aedes albopictus clone mosquito C6/36 cells (ATCC, CRL1660) were maintained in Minimum Essential Medium (MEM; Thermo Fisher Scientific) containing 10% heat-inactivated FBS, 1% penicillin-streptomycin (Thermo Fisher Scientific), 1% sodium pyruvate (Cat#11360-070, Thermo Fisher Scientific), 1% 4-(2-hydroxyethyl) piperazineethanesulfonic acid (HEPES; Cat#15630-080, Thermo Fisher Scientific) and 1% nonessential amino acids (NEAA; Cat#11140-035, Thermo Fisher Scientific) at 28° C. in 5% CO2. Dengue virus serotype 2 (DENV2, strain PL046) was obtained from Center Disease Control in Taiwan and propagated in a C6/36 cell monolayer at a multiplicity of infection (MOI) of 0.01. After incubation (28° C. in 5% CO2) for 5 days, the viral supernatants were collected and filtered with a 0.22 μm filter and then stored at −80° C. until use. Viral titers were determined by plaque assay using BHK-21 cells.
BHK-21 cells were grown in a monolayer in a 12-well plate at 7×10^4 cells/well. […]
The test system of data set [6] is DENV NS1. As to conditions: BHK-21 cells pretreated 1 h, DENV2 MOI=1, 24 h post-infection.
Protocol: (§1) Cells were collected and extracted with lysis buffer containing a protease inhibitor cocktail (Sigma-Aldrich). The processed proteins were separated by 10% SDS polyacrylamide gel electrophoresis followed by transfer to a polyvinylidene difluoride (PVDF) membrane (Millipore). Then, the PVDF membrane was blocked with 5% nonfat milk in 0.05% Tween-20-containing Tris-buffer-based saline (TBS-T) at room temperature for 1 h. Next, the membrane was washed three times with TBS-T buffer and immunohybridized with the indicated primary antibodies at 4° C. overnight. Then, the membrane was washed with TBS-T buffer three times, followed by incubation with the indicated HRP-conjugated secondary antibodies at room temperature for 1 h. The antibody-protein complexes on the PVDF membrane were detected using an ECL Western blot detection kit (PerkinElmer). The signals of the identified proteins were captured with a film exposure system.
Data set [7] deals with TNF-α. Particulars: RAW 264.7 cells, propofol 10 or 25 μg/ml, DENV2 MOI=10, 24 h.
Protocol: (§2) RAW 264.7 cells were pretreated without or with propofol (10 or 25 μg/ml) followed by infection with DENV2 (MOI=10) for 24 h. […] Quantitative data are presented as the mean±SD of the experiments (n=3). *p<0.05; ***p<0.001.
According to the manufacturer's instruction, samples were harvested, and the concentration of mouse TNFα was determined using ELISA kit (Cat#88-7324-88, eBioscience).
(§3) In this study, RAW 264.7 cells were pretreated with or without propofol (10 or 25 μg/ml) followed by infection with DENV for 24 h.
In data set [8] the test system is TNF-α. As to conditions: CoCl2-treated hypoxic BV2 microglia; cited from earlier work.
Data set [9] relates to luciferase-expressing DENV replicon. As to conditions: BHK-21-SGR replicon cells treated with or without propofol. On the technique in general: A replicon is a self-replicating genome or part of one, used to study replication in cells.
Protocol: Baby hamster kidney (BHK)-21 fibroblasts (ATCC, CCL10) were maintained in Dulbecco's modified Eagle's medium (DMEM; Thermo Fisher Scientific) containing 10% heat-inactivated fetal bovine serum (FBS, Biological Industries) and 1% penicillin-streptomycin (Thermo Fisher Scientific) at 37° C. in 5% CO2. BHK-21 cells harboring a luciferase-expressing DENV replicon (BHK-D2-Fluc-SGR-Neo-1) were maintained in DMEM with 10% heat-inactivated FBS, 1% penicillin-streptomycin, and 0.4 mg/ml G418 agent (Cat# A1720, Sigma-Aldrich) at 37° C. in 5% CO2.
BHK-D2-Fluc-SGR-Neo-1 cells (replicons) were seeded in 96-well plates at 3,000 cells/well overnight.
To assess propofol's inhibitory activity on DENV infection, we next used BHK-21-SGR cells, a cellular replicon-based reporter assay, to examine propofol's translational targets.
Data set [10] concerns phospho-STAT1 and STAT1. Particulars: RAW 264.7 cells, propofol 10 or 25 μg/ml, DENV2 MOI=10, 24 h.
Protocol: as §2, §1, §3

SMILES strings stand for the structures. Like-named read-outs stand apart in the source and are kept apart here.

On to `CO/C1=C\C(C)=C\[C@@H](C)[C@@H](O)[C@@H](C)C/C(C)=C/C=C/[C@H](OC)[C@@H]([C@@H](C)[C@@H](O)[C@H](C)[C@@]2(O)C[C@@H](O)[C@H](C)[C@@H](C(C)C)O2)OC1=O` [Baf A1, bafilomycin A1], for which the “endosomal acidification (acridine orange staining)” value in [1] is listed as “endosome acidification was blocked”. Besides, the “viral dsRNA expression (immunostaining, MFI)” value in data set [2] was “reduced dsRNA expression”.

As for `CC(C)c1cccc(C(C)C)c1O` [propofol, 2,6-diisopropylphenol], the “cytotoxicity (LDH assay)” value in data set [3] is “did not cause cytotoxicity”. Moreover, the “endosomal acidification (acridine orange staining)” value in data set [1] was “does not affect endosomal acidification”. Also, the “gene and cytokine productions of TNF-α” value is “reduces both the gene and cytokine productions of TNF-α” in data set [4]; “reduces both the gene and cytokine productions of TNF-α” in data set [8]. Besides, the “viral dsRNA expression (immunostaining, MFI)” value in data set [2] is recorded as “does not affect blocking DENV viral dsRNA replication”. Also, the “DENV virion release (viral titer, plaque assay)” value in [5] is recorded as “significantly (p<0.001) reduced DENV virion release”. In data set [6], the “viral NS1 protein expression (western blot)” value is recorded as “decreased in a dose-dependent manner”. Also, in data set [7], the “mouse TNF-α production (ELISA)” value was “reduced the cytokine levels in a dose-dependent manner”. Also, the “luciferase activity of replicons (viral protein translation)” value in [9] is “no remarkable difference”. Also, the “protein expressions of phospho-STAT1 and STAT1 (western blot)” value in data set [10] is “inhibited by propofol treatment”.
